The values below come from US12491170B2, “Stable treprostinil prodrugs” (United Therapeutics Corporation, priority 2020, dated 2025).

Read-outs that look alike come from different tables or passages of the source.

Data set [1] concerns the target T1, PGE2 receptor 1 (EP1) (Homo sapiens, UniProt P34995).
T1 sequence (P34995 1-402): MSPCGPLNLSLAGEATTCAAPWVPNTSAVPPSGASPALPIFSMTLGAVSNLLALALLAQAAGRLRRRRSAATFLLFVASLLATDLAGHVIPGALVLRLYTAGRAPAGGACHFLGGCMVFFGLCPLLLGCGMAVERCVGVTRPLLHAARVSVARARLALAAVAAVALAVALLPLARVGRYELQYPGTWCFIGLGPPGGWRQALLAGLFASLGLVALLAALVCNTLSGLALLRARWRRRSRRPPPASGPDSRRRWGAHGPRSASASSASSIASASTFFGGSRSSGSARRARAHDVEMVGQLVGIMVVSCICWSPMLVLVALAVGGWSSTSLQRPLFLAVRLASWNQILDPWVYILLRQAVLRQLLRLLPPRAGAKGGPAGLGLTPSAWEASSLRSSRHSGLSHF
Briefly: EP1 receptor calcium agonist assay (HEK293T cells). It is filed as cell-based. On the set-up: key to EC50 Fold Different from Treprostinil, EP1 Receptor: NC = too inactive to realistically calculate. As to conditions: for EP1 Relative to Tre: Table 22, relative to treprostinil EC50 values, * partial agonists or ambiguous dose-response curves. As to the method:
Calcium assay kit: Multiscreen™ Calcium 1.0 No Wash Kit (Multispan, Inc., Cat #MSCA01-1)
• EP1 Calcium and DP1 cAMP Assays: HBSS plus 20 mM HEPES • EP2 and IP1 cAMP Assays: 1 mM IBMX in HBSS plus 20 mM HEPES Instruments: FlexStation III (Molecular Devices) and FLIPR 384 (Molecular Devices)
Cells were thawed from frozen cells and resuspended in assay buffer at desired concentrations. cAMP or Calcium assays were performed according to the manufacturer's protocol using Multiscreen™ TR-FRET cAMP 1.0 No Wash Assay Kit or Multiscreen™ Calcium 1.0 No Wash Kit.
Calcium Assay: Cells were seeded in a 384-well plate at an appropriate density. The calcium assay was conducted according to the manufacturer's protocols (Multiscreen Calcium 1.0 No Wash Assay Kit). The calcium dye loading buffer was added to the cells and incubated for 1 hour at 37° C. For agonist mode, cells were injected with Iloprost control agonist or test compound by FLIPR and calcium mobilization was monitored for 180 seconds with compound injected into the wells at the 19th second. Fluorescent emissions were read at 525 nm with excitation at 490 nm in a FLIPR 384 instrument (Molecular Devices).
Calcium Assay: Calcium assay results are expressed as “RFU” as defined in figure below. Data are represented in Mean±SEM. Dose-response curves were fitted using “Sigmoidal dose-response (variable slope)” function in GraphPad Prism 6. EC50 values were calculated based on the fitted curves.
Prostaglandin receptor activity assessments with treprostinil and treprostinil analogues have been conducted, and a historical, positive control agonist for these receptors, iloprost (for IP, EP2 and EP1) or PGD2 (for DP1), was also included. These studies used cell lines overexpressing either human IP, EP2 or DP1, or EP1 receptors, and following incubation with varying concentrations of compounds, cAMP levels were measured using Fluorescence Resonance Energy Transfer (FRET). The 665/620 (acceptor/donor emission signals) ratio is inversely proportional to the concentration of cAMP.

The nature of data set [2]: Plasma stability, human plasma. It is filed as in vitro ADME. As to conditions: for Formation of Treprostinil, Concentration 0 min / Formation of Treprostinil, Concentration 15 min / Formation of Treprostinil, Concentration 30 min / Formation of Treprostinil, Concentration 60 min / Formation of Treprostinil, Concentration 120 min: prodrug dosed 1 μM. As to the method:
(§1) Studies were carried out in mixed-gender human plasma male Sprague-Dawley rat plasma, and male Beagle dog plasma. All plasma was obtained from Bioreclamation and collected on K2EDTA. Plasma was adjusted to pH 7.4 prior to initiating the experiments. DMSO stocks were first prepared for the test articles. […] The vials were kept in a benchtop Thermomixer® for the duration of the experiment. […] Samples were stored at 4° C. until the end of the experiment. After the final time point was sampled, the plate was mixed and then centrifuged at 3000 rpm for 10 minutes.

Data set [3] is described as follows: Plasma stability, rat plasma. It is filed as in vitro ADME, Sprague-Dawley rat. The note with it: for Formation of Treprostinil, Concentration 0 min / Formation of Treprostinil, Concentration 15 min / Formation of Treprostinil, Concentration 30 min / Formation of Treprostinil, Concentration 60 min / Formation of Treprostinil, Concentration 120 min: prodrug dosed 1 μM. As to the method: as §1

The nature of data set [4]: Plasma stability, dog plasma. The class given is in vitro ADME, Beagle dog. As to conditions: for Formation of Treprostinil, Concentration 0 min / Formation of Treprostinil, Concentration 15 min / Formation of Treprostinil, Concentration 30 min / Formation of Treprostinil, Concentration 60 min / Formation of Treprostinil, Concentration 120 min: prodrug dosed 1 μM. As to the method:
as §1

Data set [5] can be described thus: Stability in simulated intestinal fluid. It is filed as in vitro ADME. As to conditions: for Half-life / Percent Remaining 0 min / Percent Remaining 15 min / Percent Remaining 30 min / Percent Remaining 60 min / Percent Remaining 120 min: SIF pH 6.8 with pancreatin, 1 μM, 37° C.; for Formation of Treprostinil, Concentration 0 min / Formation of Treprostinil, Concentration 15 min / Formation of Treprostinil, Concentration 30 min / Formation of Treprostinil, Concentration 60 min / Formation of Treprostinil, Concentration 120 min: SIF, prodrug dosed 1 μM. As to the method: Studies were carried out in simulated intestinal fluid (SIF). SIF was prepared by dissolving 6.8 g of KH2PO4 in 250 mL of water, mixing, and then adding 77 mL of 0.2 N NaOH and […] of water. […] DMSO stocks were first prepared for the test articles. […] The vials were kept in a benchtop Thermomixer® for the duration of the experiment. A separate tube was dosed for each time point in each matrix. […] Samples were mixed and then immediately stored at 4° C. until the end of the experiment. After the final time point was sampled, the plate was mixed and then centrifuged at 3000 rpm for 10 minutes.

The conditions of data set [6]: rat.
For data set [7] the following is noted: dog.

On to `CCCCCC(CCC1C(O)CC2Cc3c(cccc3OCC(=O)O)CC21)OC(=O)CC` (centres unmarked) [Prodrug LV], for which, in data set [1], the “EP1 Relative to Tre” value is reported as 122x*.

For `CCCCCC(CCC1C(OC(=O)CC)CC2Cc3c(cccc3OCC(=O)O)CC21)OC(=O)CC` (centres unmarked) [Prodrug LXX, treprostinil dipropionate], the Half-life in data set [2] (1 μM, 37° C.) was over 2 h; in data set [3] (1 μM, 37° C.), 1.7 h; in data set [4] (1 μM, 37° C.), over 2 h; in data set [5] it was over 2 h. The “Percent Remaining 0 min” value is on record as 100% in data set [2] (1 μM, 37° C.); 100% in data set [3] (1 μM, 37° C.); 100% in data set [4] (1 μM, 37° C.); 100% in data set [5]. The “Percent Remaining 15 min” value in data set [2] (1 μM, 37° C.) was 92.4%; in data set [3] (1 μM, 37° C.), 98.3%; in data set [4] (1 μM, 37° C.), 103%; in data set [5], 97.2%. Also, the “Percent Remaining 30 min” value is on record as 102% in data set [2] (1 μM, 37° C., 30 min); 80.3% in data set [3] (1 μM, 37° C., 30 min); 116% in data set [4] (1 μM, 37° C., 30 min); 104% in data set [5]. For the same compound, the “Percent Remaining 60 min” value was 93.3% in data set [2] (1 μM, 37° C.); 69.3% in data set [3] (1 μM, 37° C.); 97.4% in data set [4] (1 μM, 37° C.); 93.6% in data set [5]. The “Percent Remaining 120 min” value was 103% in data set [2] (1 μM, 37° C.); 45.0% in data set [3] (1 μM, 37° C.); 91.4% in data set [4] (1 μM, 37° C.); 86.2% in data set [5]. In addition, the “Formation of Treprostinil, Concentration 0 min” value in data set [2], in data set [3], in data set [4] and in data set [5] was 0 µM in each case. Besides, the “Formation of Treprostinil, Concentration 15 min” value in data set [2] was 0 µM; in data set [3] it was 0.00392 µM; in data set [4] it was 0 µM; in data set [5], 0 µM. Further, the “Formation of Treprostinil, Concentration 30 min” value was 0 µM in data set [2] (30 min), 0.0101 µM in data set [3] (30 min), 0 µM in data set [4] (30 min) and 0 µM in data set [5]. Also, the “Formation of Treprostinil, Concentration 60 min” value in data set [2] is 0 µM; in data set [3], 0.0331 µM; in data set [4], 0 µM; in data set [5] it was 0.00415 µM. Moreover, the “Formation of Treprostinil, Concentration 120 min” value in data set [2] was 0 µM; in data set [3] it was 0.0768 µM; in data set [4] it was 0 µM; in data set [5], 0.0720 µM. Also, the “EC50 Fold Different from Treprostinil, EP1 Receptor” value in data set [1] (Table 18, * partial agonists or odd dose-response curves) is “NC”. Moreover, the values for the exposure (AUC) in data set [6] and in data set [7] were 38.82 µmol·min/L and 71.85 µmol·min/L, respectively.

With `CCCCCC(CCC1C(OC(=O)OC)CC2Cc3c(cccc3OCC(=O)O)CC21)OC(=O)OC` (centres unmarked) [Prodrug LXXI, treprostinil dicarbonate], in data set [5], the Half-life was over 2 h, the “Percent Remaining 0 min” value is recorded as 100%, the “Percent Remaining 15 min” value is 96.2% and the “Percent Remaining 30 min” value is given as 100%. Also, in data set [5], the “Percent Remaining 60 min” value is recorded as 91.9% and the “Percent Remaining 120 min” value was 83.5%. For the same compound, the AUC in data set [6] was 33.51 µmol·min/L. This compound also had an AUC in data set [7] of 56.21 µmol·min/L.

In the case of `CCCCCC(CCC1C(O)CC2Cc3c(cccc3OCC(=O)O)CC21)OP(=O)(O)O` (centres unmarked) [Prodrug VI], the “EP1 Relative to Tre” value is listed as 5x in data set [1] and 42x in data set [1] (listed as Prodrug VI repeat).

As to `CCCCCC(CCC1C(O)CC2Cc3c(cccc3OCC(=O)O)CC21)OC(C)=O` (centres unmarked) [Prodrug XLIII], in data set [1], the “EP1 Relative to Tre” value was 20x*.

Consider treprostinil diacetate [Prodrug LXXII], for which the Half-life is over 2 h in data set [2] (1 μM, 37° C.); over 2 h in data set [3] (1 μM, 37° C.); over 2 h in data set [4] (1 μM, 37° C.); over 2 h in data set [5]. The “Percent Remaining 0 min” value in data set [2] (1 μM, 37° C.) is recorded as 100%; in data set [3] (1 μM, 37° C.), 100%; in data set [4] (1 μM, 37° C.), 100%; in data set [5], 100%. The “Percent Remaining 15 min” value is given as 106% in data set [2] (1 μM, 37° C.); 107% in data set [3] (1 μM, 37° C.); 96.7% in data set [4] (1 μM, 37° C.); 111% in data set [5]. For the same compound, the “Percent Remaining 60 min” value in data set [2] (1 μM, 37° C.) is recorded as 102%; in data set [3] (1 μM, 37° C.), 83.6%; in data set [4] (1 μM, 37° C.), 107%; in data set [5] it was 108%. Further, the “Percent Remaining 120 min” value is reported as 86.5% in data set [2] (1 μM, 37° C.); 79.7% in data set [3] (1 μM, 37° C.); 82.9% in data set [4] (1 μM, 37° C.); 109% in data set [5]. For the same compound, the “Formation of Treprostinil, Concentration 0 min” value in data set [2], in data set [3], in data set [4] and in data set [5] was 0 µM each time. The “Formation of Treprostinil, Concentration 15 min” value in data set [2], in data set [3], in data set [4] and in data set [5] was 0 µM each time. Also, the “Formation of Treprostinil, Concentration 30 min” value in data set [2] (30 min), in data set [3] (30 min), in data set [4] (30 min) and in data set [5] was 0 µM throughout. Moreover, the “Formation of Treprostinil, Concentration 60 min” value in data set [2] is 0 µM; in data set [3], 0.00595 µM; in data set [4], 0 µM; in data set [5] it was 0 µM. Besides, the “Formation of Treprostinil, Concentration 120 min” value in data set [2] is 0 µM; in data set [3] it was 0.0151 µM; in data set [4], 0 µM; in data set [5], 0.0126 µM. For the same compound, the AUC came out at 10.02 µmol·min/L in data set [6] and 60.91 µmol·min/L in data set [7].
